Data set [1] deals with T1, human GLP-1 receptor (hGLP-1 R) (Homo sapiens, UniProt P43220).
T1 construct: expressed in transfected cells; host or cells: HEK-293
The data set can be described thus: cAMP response of HEK-293 cells stably expressing human GLP-1 receptor (HTRF). It counts as cell-based. As to conditions: Table 7, cAMP formation. The procedure:
(§1) cAMP content of cells was determined using a kit from Cisbio Corp. (cat. no. 62AM4PEC) based on HTRF (Homogenous Time Resolved Fluorescence). For preparation, cells were split into T175 culture flasks and grown overnight to near confluency in medium (DMEM/10% FBS). Medium was then removed and cells washed with PBS lacking calcium and magnesium, followed by proteinase treatment with accutase (Sigma-Aldrich cat. no. A6964). Detached cells were washed and resuspended in assay buffer (1×HBSS; 20 mM HEPES, 0.1% BSA, 2 mM IBMX) and cellular density determined. They were then diluted to 400000 cells/ml and 25 μl-aliquots dispensed into the wells of 96-well plates. For measurement, 25 μl of test compound in assay buffer was added to the wells, followed by incubation for 30 minutes at room temperature.

Data set [2] deals with T2, human GIP receptor (hGIP R) (Homo sapiens, UniProt P48546).
T2 construct: expressed in transfected cells; host or cells: HEK-293
T2 sequence (P48546 22-466): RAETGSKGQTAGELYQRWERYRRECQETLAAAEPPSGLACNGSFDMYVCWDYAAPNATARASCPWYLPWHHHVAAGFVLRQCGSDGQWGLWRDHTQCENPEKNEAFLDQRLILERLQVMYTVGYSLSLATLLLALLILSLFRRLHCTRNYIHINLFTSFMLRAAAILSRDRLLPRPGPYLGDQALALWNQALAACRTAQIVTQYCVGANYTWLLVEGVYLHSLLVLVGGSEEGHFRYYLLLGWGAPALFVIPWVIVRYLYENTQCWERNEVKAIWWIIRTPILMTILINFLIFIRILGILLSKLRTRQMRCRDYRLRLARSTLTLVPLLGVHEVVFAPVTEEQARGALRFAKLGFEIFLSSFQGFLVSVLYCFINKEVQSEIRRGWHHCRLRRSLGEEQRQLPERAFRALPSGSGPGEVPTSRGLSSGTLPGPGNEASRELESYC
The data set can be described thus: cAMP response of HEK-293 cells stably expressing human GIP receptor (HTRF). Format: cell-based. As for the experimental part: as §1

The target in data set [3] is T3, human glucagon receptor (hGLUC R) (Homo sapiens, UniProt P47871).
T3 construct: expressed in transfected cells; host or cells: HEK-293
Put plainly: cAMP response of HEK-293 cells stably expressing human glucagon receptor (HTRF). It counts as cell-based. Conditions: Table 7, cAMP formation. As for the experimental part:
as §1

The nature of data set [4]: Solubility testing in buffer systems (HPLC-UV). Format: physicochemical. As to conditions: buffer system, target concentration 1.0 mg/mL.
The nature of data set [5]: Chemical stability in solution, 7 days at 25° C. (% remaining peptide). It counts as physicochemical. Conditions: % remaining peptide after 7 days at 25° C., pH 7.4. The text has this: The chemical stability is expressed as “% remaining peptide”.
For data set [6], the system named is non-fasted female diabetic dbdb-mice. Put plainly: Glucose lowering in non-fasted female diabetic dbdb-mice. Conditions: 3 μg/kg s.c. It counts as in vivo. The text has this: Female diabetic dbdb-mice of mean non-fasted glucose value of 20-22 mmol/l and a body weight of 42 g+/−0.6 g (SEM) were used. Mice were individually marked and were adapted to housing conditions for at least one week.
3-5 days prior to study start mice were assigned to groups and cages (4 mice per cage, 8 per group) according to their non-fasted glucose values to ensure even distribution of lower and higher values between groups (stratification). On the study day, mice were weighed and dosed (t=0). Immediately prior to compound administration feed was removed while water remained available, and a first blood sample at a tail incision was drawn (baseline). Further blood samples were drawn at the tail incision at 30, 60, 90, 120, 240, 360, and 480 min.
Statistical analyses are performed with Everstat Version 6.0 based on SAS by 2-way-ANOVA on repeated measures, followed by Dunnett's post-hoc test against vehicle-control. Differences are considered statistically significant at the p<0.05 level.
Female dbdb-mice, received 3 μg/kg of SEQ ID NO: 13 or phosphate buffered saline (vehicle control) subcutaneously, at time 0 min.

Data set [7] addresses T4, human GIP receptor (human) (UniProt P48546).
T4 sequence (looked up): T2 sequence (P48546 22-466)
The data set can be described thus: cell-based or functional assay.

Data set [8] concerns the target human GLP-1 receptor (human) (UniProt P43220). Put plainly: cell-based or functional assay.

≈ marks a conversion by molar mass, not a printed value. Where two headings read alike, the source gives them in different places. *1 amine or outer side, *2 acyl side, *3 side chain or, on linkers, in order; H or OH if unused. Where a SMILES comes first, the peptide text is derived from it. Side-chain parts run from the residue outwards. [ ]: non-standard residue; d: D form. The star is where a group is joined. γGlu = O=C(O)[C@H](CCC(=O)[*:2])N[*:1]; Stearoyl = CCCCCCCCCCCCCCCCCC(=O)*; Aib = CC(C)(N)C(=O)O

T3 sequence (P47871 26-477): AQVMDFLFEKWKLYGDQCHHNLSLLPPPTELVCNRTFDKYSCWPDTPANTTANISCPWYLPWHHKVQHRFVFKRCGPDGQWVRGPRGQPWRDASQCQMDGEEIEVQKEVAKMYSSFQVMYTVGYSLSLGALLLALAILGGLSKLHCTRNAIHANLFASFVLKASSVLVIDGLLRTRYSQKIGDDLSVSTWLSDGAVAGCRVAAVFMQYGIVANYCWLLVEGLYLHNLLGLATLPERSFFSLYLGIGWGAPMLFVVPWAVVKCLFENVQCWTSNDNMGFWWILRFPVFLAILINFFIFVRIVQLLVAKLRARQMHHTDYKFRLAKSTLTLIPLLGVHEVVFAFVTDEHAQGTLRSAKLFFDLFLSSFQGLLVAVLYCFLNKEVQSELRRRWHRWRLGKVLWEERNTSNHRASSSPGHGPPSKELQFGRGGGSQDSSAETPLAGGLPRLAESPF
T1 sequence (P43220 24-463): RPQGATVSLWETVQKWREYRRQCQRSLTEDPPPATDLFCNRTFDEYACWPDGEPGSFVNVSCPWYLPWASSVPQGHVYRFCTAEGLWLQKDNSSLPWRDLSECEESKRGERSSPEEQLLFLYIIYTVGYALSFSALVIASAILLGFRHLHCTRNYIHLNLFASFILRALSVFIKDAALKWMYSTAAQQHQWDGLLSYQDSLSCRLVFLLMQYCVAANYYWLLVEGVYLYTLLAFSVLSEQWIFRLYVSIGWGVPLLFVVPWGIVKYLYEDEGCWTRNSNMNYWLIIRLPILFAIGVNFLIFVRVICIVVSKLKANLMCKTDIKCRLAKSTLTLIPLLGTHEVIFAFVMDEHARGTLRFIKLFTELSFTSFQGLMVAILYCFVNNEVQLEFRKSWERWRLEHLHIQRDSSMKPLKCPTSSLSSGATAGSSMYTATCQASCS
human GLP-1 receptor (human), sequence (P43220 24-463): as above

As to `CCCCCCCCCCCCCCCCCC(=O)N[C@@H](CCC(=O)NCCCC[C@H](NC(=O)[C@H](CCC(N)=O)NC(=O)[C@@H](NC(=O)[C@H](CO)NC(=O)[C@H](CC(C)C)NC(=O)[C@H](CC(=O)O)NC(=O)[C@H](CO)NC(=O)[C@@H](NC(=O)[C@H](Cc1ccccc1)NC(=O)[C@@H](NC(=O)CNC(=O)[C@H](CCC(=O)O)NC(=O)C(C)(C)NC(=O)[C@@H](N)Cc1ccc(O)cc1)[C@@H](C)O)[C@@H](C)O)[C@@H](C)CC)C(=O)N[C@@H](CCC(=O)O)C(=O)N[C@@H](CCC(=O)O)C(=O)N[C@@H](CCC(=O)O)C(=O)N[C@@H](C)C(=O)N[C@H](C(=O)N[C@@H](CCCNC(=N)N)C(=O)N[C@@H](CC(C)C)C(=O)N[C@@H](Cc1ccccc1)C(=O)N[C@H](C(=O)N[C@@H](CCC(=O)O)C(=O)N[C@@H](Cc1c[nH]c2ccccc12)C(=O)N[C@@H](CC(C)C)C(=O)N[C@@H](CCCCN)C(=O)NC(C)(C)C(=O)NCC(=O)NCC(=O)N1CCC[C@H]1C(=O)N[C@@H](CO)C(=O)N[C@@H](CO)C(=O)NCC(=O)N[C@@H](C)C(=O)N1CCC[C@H]1C(=O)N1CCC[C@H]1C(=O)N1CCC[C@H]1C(=O)N[C@@H](CO)C(N)=O)[C@@H](C)CC)C(C)C)C(=O)O` [SEQ ID NO: 9, Y-Aib-E-G-T-F-T-S-D-L-S-I-Q-K(γE-x70)-E-E-E-A-V-R-L-F-I-E-W-L-K-Aib-G-G-P-S-S-G-A-P-P-P-S-NH2], the figures for the EC50 in data set [1] (EC50 hGLP-1 R), in data set [2] and in data set [3] (EC50 hGLUC R) were 0.0267 nM, 0.0146 nM and 164 nM, respectively.
For `CCCCCCCCCCCCCCCCCC(=O)N[C@@H](CCC(=O)NCCCC[C@H](NC(=O)[C@H](CCC(N)=O)NC(=O)[C@@H](NC(=O)[C@H](CO)NC(=O)[C@H](CC(C)C)NC(=O)[C@H](CC(=O)O)NC(=O)[C@H](CO)NC(=O)[C@@H](NC(=O)[C@H](Cc1ccccc1)NC(=O)[C@@H](NC(=O)CNC(=O)[C@H](CCC(=O)O)NC(=O)C(C)(C)NC(=O)[C@@H](N)Cc1ccc(O)cc1)[C@@H](C)O)[C@@H](C)O)[C@@H](C)CC)C(=O)N[C@@H](CCC(=O)O)C(=O)N[C@@H](CCCCN)C(=O)N[C@@H](CCC(=O)O)C(=O)N[C@@H](C)C(=O)N[C@H](C(=O)N[C@@H](CCCNC(=N)N)C(=O)N[C@@H](CC(C)C)C(=O)N[C@@H](Cc1ccccc1)C(=O)N[C@H](C(=O)N[C@@H](CCC(=O)O)C(=O)N[C@@H](Cc1c[nH]c2ccccc12)C(=O)N[C@@H](CC(C)C)C(=O)N[C@@H](CCCCN)C(=O)N[C@@H](C)C(=O)NCC(=O)NCC(=O)N1CCC[C@H]1C(=O)N[C@@H](CO)C(=O)N[C@@H](CO)C(=O)NCC(=O)N[C@@H](C)C(=O)N1CCC[C@H]1C(=O)N1CCC[C@H]1C(=O)N1CCC[C@H]1C(=O)N[C@@H](CO)C(N)=O)[C@@H](C)CC)C(C)C)C(=O)O` [SEQ ID NO: 13, Y-Aib-E-G-T-F-T-S-D-L-S-I-Q-K(γE-x70)-EKEAVRLFIEWLKAGGPSSGAPPPS-NH2] (H-Y[Aib]EGTFTSDLSIQK([γGlu-Stearoyl])EKEAVRLFIEWLKAGGPSSGAPPPS-NH2), the EC50 is 0.0212 nM in data set [1] (read-out: EC50 hGLP-1 R); 0.0168 nM in data set [2] (Table 7, cAMP formation, read-out: EC50 hGIP R); 200 nM in data set [3] (read-out: EC50 hGLUC R). The solubility at 2 h in data set [4] (pH 4.5, read-out: Solubility (pH 4.5)) stood at 688 µg/mL (≈ 150 µM); in data set [4] (pH 7.4, read-out: Solubility (pH 7.4)), 824 µg/mL (≈ 180 µM). Besides, in data set [5], the “Stability (pH 7.4)” value is reported as 84.0%. Also, in data set [6] (at 240 min, kept to 480 min, baseline 20-22 mmol/l), the “maximal effect, glucose reduction” value was about 12 mmol/L. Besides, the “reduction of glucose compared to vehicle control” value in data set [6] (from t=90 min until end of observation, p<0.05) is given as “statistical significant reduction of glucose”.
Tyr(1)Ile(12)-exendin-4 (peptide) came in with an EC50 hGIP R [pM] (formed cAMP) in data set [7] of 93.9 pM. This compound also registered an EC50 hGLP-1 R [pM] (formed cAMP) in data set [8] of 1.3 pM.

For the origin of these results see patent publication US20140206608A1 (priority 2012, published 2014).
